Key:
Leukotriene D4 receptor = target: T1, Leukotriene D4 receptor (Cavia porcellus, UniProt Q2NNR5); test: Leukotriene D4 receptor binding test; conditions: binding inhibition constant (Ki) vs [3H] LTD4 0.2 nM; lung cell membrane fraction from guinea pigs; 25° C. for 30 minutes; read-out: pKi value (converted)
T1 construct: As a receptor sample, a lung cell membrane fraction from guinea pigs was used; from tissue; host or cells: lung membrane fraction of Hartley male guinea pigs
T1 sequence (Q2NNR5 1-340): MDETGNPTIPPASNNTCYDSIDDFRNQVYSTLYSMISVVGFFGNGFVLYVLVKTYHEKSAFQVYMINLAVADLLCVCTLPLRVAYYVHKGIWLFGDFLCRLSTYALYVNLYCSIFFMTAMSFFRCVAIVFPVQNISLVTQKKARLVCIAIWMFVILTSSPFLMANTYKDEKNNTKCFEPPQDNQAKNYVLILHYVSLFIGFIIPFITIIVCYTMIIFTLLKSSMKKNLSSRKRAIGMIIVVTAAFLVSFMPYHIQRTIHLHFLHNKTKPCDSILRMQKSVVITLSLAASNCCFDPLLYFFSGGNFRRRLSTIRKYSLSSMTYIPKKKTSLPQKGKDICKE
Experimental: Leukotriene D4 Receptor Binding Test
As a receptor sample, a lung cell membrane fraction from guinea pigs was used. Preparation of the membrane fraction was carried out according to the method of Ahn et al. (Eur. J. Pharmacol., 127, 153-155 (1986)). Lungs of Hartley male guinea pigs (400 to 500 g body weight, Nippon SLC Co.) were extracted, and perfused with a physiological saline, and then, adding 10 mM of PIPES, 10 mM of MgCl2 and 10 mM of CaCl2 buffer (pH 7.5) to the lung tissue and the mixture was homogenized. This homogenate was centrifuged at 70,000 xg for 10 minutes to obtain a membrane fraction.
Leukotriene D4 (LTD4) recepter binding test was carried out according to the method of Aharony, et al. (J. Pharmacol. Expl.Ther., 243, 921-926 (1987)). To 0.42 mg of the receptor sample were added 10 mM of PIPES, 10 mM of MgCl2 and 10 mM of CaCl2 buffer (pH 7.5) to make the total amount of 480 μl, and 10 μl of [^3H] LTD4 (NEN Life Science Products Co.) and 10 μl of a Test compound in dimethylsulfoxide were added to the mixture, and the resulting mixture was incubated at 25° C. for 30 minutes. The mixtures thus incubated were filtered through a glass fiber filter (Whatman Co., GF/C) using cell harvester (Brandel Co., M-30R). The filter were washed with 10 mM of Tris. and 100 mM of NaCl buffer (pH 7.5), and 5 ml of a liquid scintillator (NACALAI TESQUE INC., clearsol I), and radioactivity was measured by a liquid scintillation analyzer (Packard Co., 2000CA). When a dissociation constant (Kd) of LTD4 was to be obtained, [^3H] LTD4 with 0.03 to 0.5 nM was used, and 1 μM of non-radioactive LTD4 was added. When a binding inhibition constant (Ki) of the Test compound is to be meaured, [^3H] LTD4 with 0.2 nM was used. Kd and Ki are calculated according to the method of Bennett et al. (Neurotransmitter Receptor Binding, 2nd ed., edited by H. I. Yamamura et al., pp. 61-89, Raven Press (1985)).

[1] = tested on: Leukotriene D4 induced respiratory constriction; test: Leukotriene D4 induced respiratory constriction test; type: in vivo; conditions: p.o. 1 hr before i.v. LTD4; anesthetized Hartley male guinea pigs; respiratory inner pressure
Experimental: Leukotriene D4 Induced Respiratory Constriction Test
Respiratory constriction was measured by modifying the method of Konzett and Rossler (Arch. Exp. Pathol. Pharmakol., 195, pp. 71-74 (1940)). Hartley male guinea pigs (400 to 500 g body weight, Nippon SLC Co.) were anesthetized with pentobarbital (50 mg/kg, s.c.), and a cannula was inserted into the trachea to carry out artificial ventilation with an artificial ventilator (manufactured by Harvard Co., Model 683). An inner pressure of the respiratory tract was measured by a differential pressure transducer (Nihon Koden, TP-603T) connected to the respiratory cannula and it is used as an index of respiratory constriction.
LTD4 (0.03, 0.06, 0.13, 0.25, 0.5, 1 and 2 μg/kg, Sigma Co.) was intravenously administered from a cannula inserted into the right jugular vein from a low dose with an interval of 5 minutes to cause a respiratory constriction reaction and an increased amount of a respiratory inner pressure was measured. Test compound was suspended in 0.5% sodium carboxymethyl cellulose aqueous solution, and orally administered 1 hour before administration of LTD4. Animals were fasted for 24 hours before administration of the Test compound.
A2=(Dose of Compound administered)/{(ED50 of group to which Compound was added)/(ED50 of control group)−1}

| SMILES | Ki (Leukotriene D4 receptor) [nM] | A2 (dose of Test compound required for shifting two-times the LTD4 dose-reaction curve of control group to higher dose side) [1] [µg/kg] | melting point [°C] |
| --- | --- | --- | --- |
| C[C@H](CSC1c2ccccc2COc2ccc(/C=C/c3ccc4cc(F)c(F)cc4n3)cc21)C(=O)[O-].[Na+] (stereo partly drawn) [Example 43, Sodium 3-{[2-[(E)-2-(6,7-difluoro-2-quinolinyl)ethenyl]-6,11-dihydrodibenz[b,e]oxepin-11-yl]thio}-2-(S)-methyl-propionate] | 0.126 | 1.3 | 193 to 216 |
| C[C@@H](CSC1c2ccccc2COc2ccc(/C=C/c3ccc4cc(F)c(F)cc4n3)cc21)C(=O)[O-].[Na+] (stereo partly drawn) [Example 44, Sodium 3-{[2-[(E)-2-(6,7-difluoro-2-quinolinyl)ethenyl]-6,11-dihydrodibenz[b,e]oxepin-11-yl]thio}-2-(R)-methylpropionate] | 0.2 | 5 | 196 to 220 |
| O=C([O-])CCSC1c2cc(/C=C/c3ccc4cc(F)c(F)cc4n3)ccc2COc2ccccc21.[Na+] (stereo not drawn) [Example 54 (b), Sodium 3-{[9-[(E)-2-(6,7-difluoro-2-quinolinyl)ethenyl]-6,11-dihydrodibenz[b,e]oxepin-11-yl]thio}propionate] | 0.126 | 2.3 | > 300 |

Source: patent publication US20030216571A1, “Tricyclic compounds” (priority 1999, published 2003)
